Reference: US8524765B2, “Compounds that modulate intracellular calcium” (Calcimedica, Inc., priority 2007, dated 2013)
Entries after “also recorded” stand apart in the source; their conditions may differ. Like-named read-outs stand apart in the source and are kept apart here.

Key:
[1] = test system: store-operated calcium entry in RBL-2H3 cells; assay: Fluorescence (FLUO-4/FLIPR384) store-operated calcium entry screening assay; type: cell-based, rat; settings: for inhibition at 10 µM: RBL-2H3; for inhibition at 10 µM / % Inhibition at 10 μM: cell line not stated; for IC50: Up slope parameter, RBL-2H3 cells
Method: Fluorescence-based assays were used for screening the compounds described herein, such as compounds of Formula (I) and Formula (II), which modulate intracellular calcium.
RBL-2H3 cells plated in 384-well plates were loaded for 45 min with FLUO-4-AM (2 μM final concentration) in HBSS. Cells were washed and placed in a nominally Ca^2+- and Mg^2+-free Hanks solution. One minute later, a test agent or vehicle was added. After a 15 minute incubation period, 1 μM thapsigargin (Tg) was added to inhibit the ER Ca^2+ pump and discharge intracellular Ca^2+ stores. Fifteen minutes after addition of Tg, store-operated calcium entry was initiated by adding external Ca^2+ to a final concentration of 1.8 mM and the cells monitored for a further 10-15 minutes. Calcium levels were monitored throughout the assay using a FLIPR^384 (Molecular Devices fluorimetric imaging plate reader for high throughput screening).
A similar screening assay procedure was used with HEK293 and RBL-2H3 cells.
The kinetic data from the FLIPR^384 were analyzed and then stored in a relational database (ActivityBase; IDBS). Ten quantitative parameters were calculated that define various aspects of the store-operated calcium entry response. These parameters are as follows:
Up slope: linear regression of the increase in RFU from 2 to 30 sec after addition of Ca^2+.
Combinations of these parameters were used to characterize the compounds of Formula (I). Compounds were retested under identical conditions to confirm their activity. Compounds with confirmed activity were then analyzed for concentration-dependent effects, and subsequently, those compounds displaying concentration-dependent effects were categorized as compounds that modulate intracellular calcium.

HEK-Zeo control cells = settings: read-out: IC50 for inhibition of calcium entry, HEK-Zeo control cells; thapsigargin-mediated store depletion, readdition of external calcium
Method: (§1) To test whether the Ca^2+ entry pathway activated by STIM1 overexpression is pharmacologically similar to endogenous SOCE, HEK[STIM1] cells were pre-incubated with increasing doses of 2-APB and STIM1-dependent Ca^2+ entry was measured.

HEK[STIM1] cells = assay: STIM1-dependent Ca2+ entry in STIM1-overexpressing cells; type: cell-based, human
Method: as §1

hOrail/hSTIM1 [2] = molecular target: T1, hOrail/hSTIM1 (Homo sapiens, UniProt Q96D31); assay: Monster ICRAC in cells stably overexpressing hOrail/hSTIM1; type: cell-based; settings: FIG. 15
T1 construct: expressed in transfected cells
T1 sequence (Q96D31 whole entry): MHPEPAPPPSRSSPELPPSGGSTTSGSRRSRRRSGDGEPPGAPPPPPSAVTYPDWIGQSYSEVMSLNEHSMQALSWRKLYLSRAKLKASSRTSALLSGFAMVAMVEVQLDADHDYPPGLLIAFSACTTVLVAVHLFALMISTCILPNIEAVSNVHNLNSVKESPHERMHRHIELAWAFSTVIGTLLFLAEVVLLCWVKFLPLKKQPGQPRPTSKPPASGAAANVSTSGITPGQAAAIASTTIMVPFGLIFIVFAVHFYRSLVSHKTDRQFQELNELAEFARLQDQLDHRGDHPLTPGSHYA
T1 sequence (Q13586 23-685 partner): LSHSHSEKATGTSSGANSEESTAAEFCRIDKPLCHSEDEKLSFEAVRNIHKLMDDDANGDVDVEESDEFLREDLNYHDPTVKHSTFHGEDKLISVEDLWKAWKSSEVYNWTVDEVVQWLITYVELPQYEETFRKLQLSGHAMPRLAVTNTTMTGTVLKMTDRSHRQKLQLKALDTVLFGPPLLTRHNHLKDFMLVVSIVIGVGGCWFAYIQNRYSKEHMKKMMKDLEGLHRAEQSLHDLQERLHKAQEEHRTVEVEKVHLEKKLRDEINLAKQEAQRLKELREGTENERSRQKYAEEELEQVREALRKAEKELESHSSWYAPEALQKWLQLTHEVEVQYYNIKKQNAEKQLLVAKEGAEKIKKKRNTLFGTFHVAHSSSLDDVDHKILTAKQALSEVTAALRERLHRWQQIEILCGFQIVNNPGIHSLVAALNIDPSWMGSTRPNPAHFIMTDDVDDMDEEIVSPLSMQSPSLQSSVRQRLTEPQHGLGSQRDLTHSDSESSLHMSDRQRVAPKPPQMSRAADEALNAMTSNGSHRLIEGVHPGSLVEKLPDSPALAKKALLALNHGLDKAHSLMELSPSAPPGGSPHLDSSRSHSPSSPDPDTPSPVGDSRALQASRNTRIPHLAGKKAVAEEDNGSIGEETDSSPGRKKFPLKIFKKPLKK

hOrail/hSTIM1 [3] = molecular target: T1, hOrail/hSTIM1; assay: Recombinant hOrail/hSTIM1-dependent Ca2+ entry in stable cells; type: cell-based; settings: FIG. 14

Structure (SMILES)	IC50 ([1]; Rattus norvegicus)	inhibition at 10 µM ([1]; Rattus norvegicus)	also measured
O=C(Nc1scc(-c2cc(Cl)cc(Cl)c2)c1C(=O)O)c1ccc(Br)cc1 [Compound 19, 2-(4-bromobenzamido)-4-(3,5-dichlorophenyl)thiophene-3-carboxylic acid]	1.6 µM	> 70%	
Cc1ccc(-c2csc(NC(=O)c3ccc(Br)cc3)c2C(=O)O)cc1 [Compound 16, 2-(4-bromobenzamido)-4-(4-methylphenyl)thiophene-3-carboxylic acid]	0.6 µM		
O=C(Nc1scc(-c2ccc(Cl)cc2)c1C(=O)O)c1ccc(Br)cc1 [Compound 17, 2-(4-bromobenzamido)-4-(4-chlorophenyl)thiophene-3-carboxylic acid]	1 µM	> 70%	
O=C(Nc1scc(-c2ccc(Cl)c(Cl)c2)c1C(=O)O)c1ccc(F)cc1 [Compound 3, 2-(4-fluorobenzamido)-4-(3,4-dichlorophenyl)thiophene-3-carboxylic acid]	3.3 µM	> 70%	
O=C(Nc1scc(-c2cccc(Cl)c2)c1C(=O)O)c1ccc(Br)cc1 [Compound 20, 2-(4-bromobenzamido)-4-(3-chlorophenyl)thiophene-3-carboxylic acid]	4 µM	< 70%	
Cc1ccc(-c2csc(NC(=O)c3ccc(Br)cc3)c2C(=O)O)cc1C [Compound 21, 2-(4-bromobenzamido)-4-(3,4-dimethylphenyl)thiophene-3-carboxylic acid]	4.6 µM	> 70%	
O=C(Nc1scc(-c2ccc(Cl)cc2Cl)c1C(=O)O)c1cc2ccccc2s1 [Compound 45, 2-(benzothien-2-ylamido)-4-(2,4-dichlorophenyl)thiophene-3-carboxylic acid]			% Inhibition at 10 μM [1]: >70%; IC50 [1]: 2.4 µM
NCCOB(c1ccccc1)c1ccccc1 [Compound 2-APB, 2-aminoethoxydiphenyl borate]			IC50 (HEK-Zeo control cells): 11.8 µM; effect on STIM1-dependent Ca2+ entry (HEK[STIM1] cells; HEK293 overexpressing STIM1, no Tg store depletion, FIG. 13): biphasic effect; also recorded: both enhances (at low concentrations) and inhibits (at high concentrations); IC50 (HEK[STIM1] cells; HEK[STIM1] cells, entry induced by pretreatment in Ca2+-free buffer, read-out: IC50 for inhibition of Ca2+ entry in the absence of Tg-dependent store depletion): 10.8 µM; IC50 (HEK[STIM1] cells; thapsigargin-mediated store depletion, readdition of external calcium, read-out: IC50 for inhibition of calcium entry, HEK[STIM1] cells): 10.5 µM
O=C(Nc1scc(-c2ccc(Cl)cc2)c1C(=O)O)c1ccc(F)cc1 [Compound 2, 2-(4-fluorobenzamido)-4-(4-chlorophenyl)thiophene-3-carboxylic acid]	2.3 µM		effect on Monster ICRAC (hOrail/hSTIM1 [2]): inhibit; effect on recombinant hOrail/hSTIM1-dependent Ca2+ entry (hOrail/hSTIM1 [3]): inhibition
O=C(Nc1scc(-c2ccc(C(F)(F)F)cc2)c1C(=O)O)c1ccc(F)cc1 [Compound 4, 2-(4-fluorobenzamido)-4-(4-trifluoromethylphenyl)thiophene-3-carboxylic acid]		> 70%	
O=C(Nc1scc(-c2ccc(Cl)cc2)c1C(=O)O)c1cccc(F)c1 [Compound 25, 2-(3-fluorobenzamido)-4-(4-chlorophenyl)thiophene-3-carboxylic acid]	1.3 µM		
O=C(Nc1scc(-c2ccc(Br)cc2)c1C(=O)O)c1ccc(Cl)cc1 [Compound 12, 2-(4-chlorobenzamido)-4-(4-bromophenyl)thiophene-3-carboxylic acid]	1.2 µM		
O=C(Nc1scc(-c2cccc(Cl)c2)c1C(=O)O)c1cc2ccccc2s1 [Compound 46, 2-(benzothien-2-ylamido)-4-(3-chlorophenyl)thiophene-3-carboxylic acid]			% Inhibition at 10 μM [1]: >70%; IC50 [1]: 10.7 µM
O=C(Nc1scc(-c2ccc(Br)cc2)c1C(=O)O)c1ccc(Br)cc1 [Compound 18, 2-(4-bromobenzamido)-4-(4-bromophenyl)thiophene-3-carboxylic acid]	1.3 µM	> 70%	
O=C(Nc1scc(-c2ccc(Cl)cc2)c1C(=O)O)c1cc2ccccc2s1 [Compound 43, 2-(benzothien-2-ylamido)-4-(4-chlorophenyl)thiophene-3-carboxylic acid]			% Inhibition at 10 μM [1]: >70%; IC50 [1]: 1 µM
O=C(Nc1scc(-c2ccc(Br)cc2)c1C(=O)O)c1cc2ccccc2s1 [Compound 14, 2-(benzothien-2-ylamido)-4-(4-bromophenyl)thiophene-3-carboxylic acid]			% Inhibition at 10 μM [1]: >70%; IC50 [1]: 2.4 µM
Cc1cccc(C(=O)Nc2scc(-c3ccc(Br)cc3)c2C(=O)O)c1 [Compound 15, 2-(3-methylbenzamido)-4-(4-bromophenyl)thiophene-3-carboxylic acid]	2.6 µM		
Cc1ccc(-c2csc(NC(=O)c3cc4ccccc4s3)c2C(=O)O)cc1 [Compound 44, 2-(benzothien-2-ylamido)-4-(4-methylphenyl)thiophene-3-carboxylic acid]			% Inhibition at 10 μM [1]: <70%; IC50 [1]: 1.3 µM
O=C(Nc1scc(-c2ccc(Cl)cc2)c1C(=O)O)c1ccc(Cl)cc1 [Compound 33, 2-(4-chlorobenzamido)-4-(4-chlorophenyl)thiophene-3-carboxylic acid]	1 µM		
O=C(Nc1scc(-c2ccc(Br)cc2)c1C(=O)O)c1cccc(F)c1 [Compound 11, 2-(3-fluorobenzamido)-4-(4-bromophenyl)thiophene-3-carboxylic acid]	0.8 µM		
O=C(Nc1scc(-c2ccc(Cl)cc2Cl)c1C(=O)O)c1cccc(F)c1 [Compound 26, 2-(3-fluorobenzamido)-4-(2,4-dichlorophenyl)thiophene-3-carboxylic acid]	2.1 µM	> 70%	

The next lines start with results.

IC50 ([1]; Rattus norvegicus)	Structure (SMILES)	inhibition at 10 µM ([1]; Rattus norvegicus)	also measured
1.2 µM	Cc1cccc(C(=O)Nc2scc(-c3ccc(Cl)cc3)c2C(=O)O)c1 [Compound 50, 2-(3-methylbenzamido)-4-(4-chlorophenyl)thiophene-3-carboxylic acid]		
1.6 µM	O=C(Nc1scc(-c2ccc(Cl)cc2Cl)c1C(=O)O)c1ccc(Cl)cc1 [Compound 35, 2-(4-chlorobenzamido)-4-(2,4-dichlorophenyl)thiophene-3-carboxylic acid]	> 70%	
1 µM	Cc1ccc(-c2csc(NC(=O)c3ccc(Cl)cc3)c2C(=O)O)cc1 [Compound 34, 2-(4-chlorobenzamido)-4-(4-methylphenyl)thiophene-3-carboxylic acid]		
2.4 µM	O=C(Nc1scc(-c2ccc(F)cc2)c1C(=O)O)c1ccc(Cl)cc1 [Compound 36, 2-(4-chlorobenzamido)-4-(4-fluorophenyl)thiophene-3-carboxylic acid]		
3.8 µM	Cc1ccc(-c2csc(NC(=O)c3ccc(Cl)cc3)c2C(=O)O)cc1C [Compound 38, 2-(4-chlorobenzamido)-4-(3,4-dimethylphenyl)thiophene-3-carboxylic acid]	< 70%	
3 µM	Cc1ccc(-c2csc(NC(=O)c3cccc(C)c3)c2C(=O)O)cc1 [Compound 51, 2-(3-methylbenzamido)-4-(4-methylphenyl)thiophene-3-carboxylic acid]		
3 µM	O=C(Nc1scc(-c2ccc(Cl)c(Cl)c2)c1C(=O)O)c1ccc(Cl)cc1 [Compound 37, 2-(4-chlorobenzamido)-4-(3,4-dichlorophenyl)thiophene-3-carboxylic acid]	< 70%	
